Laboratory results as given in patent US7585859B2, “PDE4B inhibitors and uses therefor” (Plexxikon, Inc., priority 2004, dated 2009).

Columns and labels:
Format in all cases: biochemical
[1] = molecular target: T1, PDE4B: The catalytic domain of human PDE4B from S152-S528 (Homo sapiens, UniProt Q07343); assay: PDE4 IC50 determination by Scintillation Proximity Assay, PDE4B; conditions: Table 1B, Formula I compounds; read-out: IC50 PDE4B
T1 construct: His6 (N); thrombin cleavage site (N); made in house; host or cells: E. coli
Summary of the method: (§1)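 Radiometric SPA: PDE4B (80 ng/ml) or PDE4D (4 ng/ml) hydrolysed [^3H]cAMP over 30 min at 30°, and the bead-bound [^3H]AMP was scintillation-counted.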

[2] = molecular target: T2, full-length human PDE4B2 isozyme (Homo sapiens, UniProt Q07343); assay: PDE4 IC50 determination by Scintillation Proximity Assay, PDE4B2; conditions: Table 1B, Formula I compounds; read-out: IC50 PDE4B2
T2 construct: The full-length human PDE4B2 isozyme; His6 (N); TEV cleavage site (N); made in house; host or cells: baculovirus infected insect cells (unpurified lysate)
Summary of the method: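 Unpurified His6-TEV-tagged full-length human PDE4B2 from baculovirus-infected insect cell lysate (2.5 μl of 50% glycerol stock/ml) hydrolysed [3H]cAMP in 50 mM Tris pH 7.5, 8.3 mM MgCl, 1.7 mM EGTA, 0.01% BSA for 30 min at 30°. Stopped with SPA beads in 18 mM ZnSO4; [3H]AMP scintillation counted, IC50 by non-linear regression.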

[3] = molecular target: T3, PDE4D (Homo sapiens, UniProt Q08499); assay: PDE4 IC50 determination by Scintillation Proximity Assay, PDE4D; conditions: Table 1B, Formula I compounds; read-out: IC50 PDE4D
T3 construct: PDE4D: The catalytic domain of human PDE4B from S3 16-V692; His6 (N); thrombin cleavage site (N); made in house; host or cells: E. coli
Summary of the method: as §1

[4] = molecular target: T4, full-length human PDE4D5 isozyme (Homo sapiens, UniProt Q08499); assay: PDE4 IC50 determination by Scintillation Proximity Assay, PDE4D5; conditions: Table 1B, Formula I compounds; read-out: IC50 PDE4D5
T4 construct: The full-length human PDE4D5 isozyme; His6 (N); TEV cleavage site (N); made in house; host or cells: baculovirus infected insect cells (unpurified lysate)
Procedure: IC50s were determined by Scintillation Proximity Assay (SPA). The principle of the assay is based on the fact that cAMP, the PDE4 substrate, binds weakly to Yittrium Silicate SPA beads, whereas AMP, the product of PDE4 hydrolysis binds strongly. Thus, the extent of PDE4 hydrolysis of a sample of [^3H]cAMP can be measured because only the
[^3H]AMP produced by PDE4 hydrolysis will bind to the SPA beads and produce a scintillation signal.
PDE4 enzymes used for IC50 assays were:
PDE4D5: The full-length human PDE4D5 isozyme with an N-terminal His6 tag (SEQ ID NO: 18) and TEV cleavage site expressed in baculovirus infected insect cells. The enzyme was not purified from the cell lysates, so enzyme concentrations were not determined. Enzyme was stored in 50% glycerol at −20°.
Compounds tested (see Tables 3B, 4B and 5A for compounds and results) were 3-fold serially diluted 11 times in DMSO from a starting concentration of 4 mM or 40 μM, depending on compound potency. 1 μl of each dilution was transferred into duplicate wells of a white polystyrene 384-well assay plate (Coming #3705). In addition to the compound dilutions, each assay plate contained control wells with 1 μl of DMSO (to define 0% enzyme inhibition) or 1 μl of 200 μM roflumilast (to define 100% enzyme inhibition). Using a Beckman FX robot, 10 μl of [^3H] cAMP (Amersham TRK559) at 2 mCi/ml in assay buffer (50 mM Tris, pH 7.5; 8.3 mM MgCl; 1.7 mM EGTA; 0.01% BSA) was transferred to each assay well. Next, 10 μl of PDE4 enzyme in assay buffer was added and the plates were shaken for 30 s. at 1000 rpm to start the cAMP hydrolysis reaction. The concentrations of enzyme used were: PDE4B, 80 ng/ml; PDE4D, 4 ng/ml; PDE4B2, 2.5 μl of 50% glycerol stock/ml; PDE4D5 0.083 μl of 50% glycerol stock/ml. Assay plates were covered and incubated for 30 min. at 30°. Reactions were stopped by robotic addition of 10 μl of 5 mg/ml SPA beads (Amersham RPNQ0013) in 18 mM ZnSO4. The assay plates were covered with clear plastic film, centrifuged for 1 min. at 1000 RPM to settle the SPA beads, and counted using a Wallac TriLux scintillation counter. IC50's were calculated from the raw assay data by non-linear regression curve fitting using the Assay Explorer software package from MDL.

T1 sequence (Q07343 with tags, fused parts or gaps): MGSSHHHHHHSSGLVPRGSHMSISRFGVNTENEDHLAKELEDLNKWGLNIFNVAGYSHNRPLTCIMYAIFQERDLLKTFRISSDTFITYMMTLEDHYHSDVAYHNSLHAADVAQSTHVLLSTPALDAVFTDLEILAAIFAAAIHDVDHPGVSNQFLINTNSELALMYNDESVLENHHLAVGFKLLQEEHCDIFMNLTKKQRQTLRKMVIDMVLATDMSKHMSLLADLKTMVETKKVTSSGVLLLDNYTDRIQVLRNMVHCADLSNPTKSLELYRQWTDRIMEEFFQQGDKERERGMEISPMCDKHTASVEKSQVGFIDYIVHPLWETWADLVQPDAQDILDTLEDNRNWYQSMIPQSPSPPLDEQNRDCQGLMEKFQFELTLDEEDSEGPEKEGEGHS
T3 sequence (Q08499 380-756): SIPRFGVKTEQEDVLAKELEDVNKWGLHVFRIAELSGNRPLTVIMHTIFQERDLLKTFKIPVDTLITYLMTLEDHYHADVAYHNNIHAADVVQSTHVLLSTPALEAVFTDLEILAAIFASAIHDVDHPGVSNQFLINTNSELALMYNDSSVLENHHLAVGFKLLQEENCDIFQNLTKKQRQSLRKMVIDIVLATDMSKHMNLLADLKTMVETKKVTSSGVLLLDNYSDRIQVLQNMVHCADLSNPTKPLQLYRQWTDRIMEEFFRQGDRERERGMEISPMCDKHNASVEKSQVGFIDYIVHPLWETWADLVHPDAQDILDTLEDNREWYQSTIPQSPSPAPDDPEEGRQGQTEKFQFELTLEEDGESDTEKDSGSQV
T2 sequence (Q07343 1-564 isoform Q07343-2): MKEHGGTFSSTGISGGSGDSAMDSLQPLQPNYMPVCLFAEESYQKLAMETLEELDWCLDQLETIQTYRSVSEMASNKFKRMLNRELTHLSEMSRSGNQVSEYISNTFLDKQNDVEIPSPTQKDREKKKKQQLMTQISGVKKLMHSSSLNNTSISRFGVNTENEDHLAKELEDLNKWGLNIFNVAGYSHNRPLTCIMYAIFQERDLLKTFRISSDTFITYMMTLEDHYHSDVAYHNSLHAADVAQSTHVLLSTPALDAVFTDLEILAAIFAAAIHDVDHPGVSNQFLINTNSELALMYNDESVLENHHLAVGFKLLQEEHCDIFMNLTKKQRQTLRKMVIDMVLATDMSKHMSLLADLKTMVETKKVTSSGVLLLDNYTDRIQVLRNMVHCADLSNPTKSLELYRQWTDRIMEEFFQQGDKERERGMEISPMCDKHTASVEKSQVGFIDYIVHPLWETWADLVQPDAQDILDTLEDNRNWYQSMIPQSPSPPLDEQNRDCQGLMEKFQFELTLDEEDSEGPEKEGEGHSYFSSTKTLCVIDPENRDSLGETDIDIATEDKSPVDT
T4 sequence (Q08499 1-745 isoform Q08499-6): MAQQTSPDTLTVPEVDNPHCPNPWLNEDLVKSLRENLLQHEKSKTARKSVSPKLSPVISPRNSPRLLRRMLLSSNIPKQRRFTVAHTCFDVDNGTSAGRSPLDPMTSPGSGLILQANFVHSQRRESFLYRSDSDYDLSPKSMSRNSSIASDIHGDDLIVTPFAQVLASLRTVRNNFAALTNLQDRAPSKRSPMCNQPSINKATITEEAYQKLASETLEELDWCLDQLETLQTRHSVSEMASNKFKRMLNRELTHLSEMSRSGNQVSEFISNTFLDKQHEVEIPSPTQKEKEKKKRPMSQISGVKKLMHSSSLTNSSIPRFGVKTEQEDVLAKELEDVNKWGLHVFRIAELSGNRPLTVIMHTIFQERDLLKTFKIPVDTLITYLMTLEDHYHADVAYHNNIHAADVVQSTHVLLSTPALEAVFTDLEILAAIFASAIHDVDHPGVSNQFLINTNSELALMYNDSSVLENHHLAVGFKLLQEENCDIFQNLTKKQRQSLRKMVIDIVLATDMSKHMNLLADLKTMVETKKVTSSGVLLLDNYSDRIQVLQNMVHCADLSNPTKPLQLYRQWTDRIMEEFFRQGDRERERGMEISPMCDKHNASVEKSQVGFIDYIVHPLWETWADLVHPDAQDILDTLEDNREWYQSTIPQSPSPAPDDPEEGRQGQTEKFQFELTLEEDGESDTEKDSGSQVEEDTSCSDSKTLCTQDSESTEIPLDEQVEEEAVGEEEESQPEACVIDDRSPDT

SMILES	IC50 [1]	IC50 [2]	IC50 [3]	IC50 [4]
Cc1c(C(=O)c2sc(Nc3cccc(C#N)c3)c(C#N)c2N)cnn1-c1ccccc1 [Compound 1-125, 4-Amino-2-(3-cyano-phenylamino)-5-(5-methyl-1-phenyl-1H-pyrazole-4-carbonyl)-thiophene-3-carbonitrile]	< 10 µM	< 10 µM	< 10 µM	< 10 µM
CCc1ccccc1Nc1sc(C(=O)c2cc(OC)ccc2OC)c(N)c1C#N [Compound 1-99, 4-Amino-5-(2,5-dimethoxy-benzoyl)-2-(2-ethyl-phenylamino)-thiophene-3-carbonitrile]	< 10 µM	< 10 µM	< 10 µM	< 10 µM
Cc1c(C(=O)c2sc(NC3CCCC3)c(C#N)c2N)cnn1-c1ccccc1 [Compound 1-55, 4-Amino-2-cyclopentylamino-5-(5-methyl-1-phenyl-1H-pyrazole-4-carbonyl)-thiophene-3-carbonitrile]	< 10 µM	< 10 µM	< 10 µM	< 10 µM
N#Cc1cccc(Nc2sc(C(=O)c3ccc(-c4ccccn4)s3)c(N)c2C#N)c1 [Compound 1-69, 4-Amino-2-(3-cyano-phenylamino)-5-(5-pyridin-2-yl-thiophene-2-carbonyl)-thiophene-3-carbonitrile]	< 10 µM	< 10 µM	< 10 µM	< 10 µM
Cc1c(C(=O)c2sc(NCC3CCCO3)c(C#N)c2N)cnn1-c1ccccc1 (centres unmarked) [Compound 1-57, 4-Amino-5-(5-methyl-1-phenyl-1H-pyrazole-4-carbonyl)-2-[(tetrahydro-furan-2-ylmethyl)-amino]-thiophene-3-carbonitrile]	> 10 µM	> 10 µM	< 10 µM	> 10 µM
N#Cc1c(NCCN2CCCCC2)sc(C(=O)c2cc(-c3ccccc3)no2)c1N [Compound 1-62, 4-Amino-5-(3-phenyl-isoxazole-5-carbonyl)-2-(2-piperidin-1-yl-ethylamino)-thiophene-3-carbonitrile]	> 10 µM	> 10 µM	> 10 µM	> 10 µM
N#Cc1c(NC2CCCC2)sc(C(=O)c2ccc(-c3ccccn3)s2)c1N [Compound 1-78, 4-Amino-2-cyclopentylamino-5-(5-pyridin-2-yl-thiophene-2-carbonyl)-thiophene-3-carbonitrile]	< 10 µM	< 10 µM	< 10 µM	< 10 µM
NC(=O)c1c(Nc2ccccc2)sc(C(=O)c2ccccc2)c1N [Compound 1-12, 4-Amino-5-benzoyl-2-phenylamino-thiophene-3-carboxylic acid amide]	> 10 µM	> 10 µM	> 10 µM	> 10 µM
N#Cc1c(Nc2ccc(Cl)cc2)sc(C(=O)c2ccc(Cl)cc2Cl)c1N [Compound 1-18, 4-Amino-2-(4-chloro-phenylamino)-5-(2,4-dichloro-benzoyl)-thiophene-3-carbonitrile]	< 10 µM	< 10 µM	< 10 µM	< 10 µM
N#Cc1c(NCCN2CCCCC2)sc(C(=O)c2cc(-c3ccc(Cl)c(Cl)c3)no2)c1N [Compound 1-83, 4-Amino-5-[3-(3,4-dichloro-phenyl)-isoxazole-5-carbonyl]-2-(2-piperidin-1-yl-ethylamino)-thiophene-3-carbonitrile]	> 10 µM	> 10 µM	> 10 µM	> 10 µM
Cc1onc(-c2ccccc2)c1C(=O)c1sc(NC2CCCC2)c(C#N)c1N [Compound 1-61, 4-Amino-2-cyclopentylamino-5-(5-methyl-3-phenyl-isoxazole-4-carbonyl)-thiophene-3-carbonitrile]	< 10 µM	< 10 µM	< 10 µM	< 10 µM
COc1ccc(CNc2sc(C(=O)c3ccc(-c4ccccn4)s3)c(N)c2C#N)cc1OC [Compound 1-75, 4-Amino-2-(3,4-dimethoxy-benzylamino)-5-(5-pyridin-2-yl-thiophene-2-carbonyl)-thiophene-3-carbonitrile]	< 10 µM	< 10 µM	< 10 µM	< 10 µM

The next lines start with the values.

IC50 [1]	IC50 [2]	IC50 [3]	IC50 [4]	SMILES
< 10 µM	< 10 µM	< 10 µM	< 10 µM	CSc1cccc(Nc2sc(C(=O)c3ccccc3Cl)c(N)c2C#N)c1 [Compound 1-180, 4-Amino-5-(2-chloro-benzoyl)-2-(3-methylsulfanyl-phenylamino)-thiophene-3-carbonitrile]
< 10 µM	< 10 µM	< 10 µM	< 10 µM	COc1ccc(Nc2sc(C(=O)c3c(-c4ccccc4)noc3C)c(N)c2C#N)cc1 [Compound 1-129, 4-Amino-2-(4-methoxy-phenylamino)-5-(5-methyl-3-phenyl-isoxazole-4-carbonyl)-thiophene-3-carbonitrile]
< 10 µM	< 10 µM	< 10 µM	< 10 µM	CCOC(=O)c1cc(C(=O)c2sc(NC3CCCC3)c(C#N)c2N)on1 [Compound 1-139, 5-(3-Amino-4-cyano-5-cyclopentylamino-thiophene-2-carbonyl)-isoxazole-3-carboxylic acid ethyl ester]
< 10 µM	< 10 µM	< 10 µM	> 10 µM	CC(C)C(C)Nc1sc(C(=O)c2cc(-c3ccc(Cl)c(Cl)c3)no2)c(N)c1C(N)=O (centres unmarked) [Compound 1-248, 4-Amino-5-[3-(3,4-dichloro-phenyl)-isoxazole-5-carbonyl]-2-(1,2-dimethyl-propylamino)-thiophene-3-carboxylic acid amide]
< 10 µM	< 10 µM	< 10 µM	< 10 µM	COC(=O)c1ccccc1Nc1sc(C(=O)c2c(-c3ccccc3)noc2C)c(N)c1C#N [Compound 1-130, 2-[4-Amino-3-cyano-5-(5-methyl-3-phenyl-isoxazole-4-carbonyl)-thiophen-2-ylamino]-benzoic acid methyl ester]
> 10 µM	> 10 µM	> 10 µM	> 10 µM	COc1cccc(CNc2sc(C(=O)c3cc(-c4ccccc4)no3)c(N)c2C#N)c1 [Compound 1-216]
> 10 µM	> 10 µM	< 10 µM	> 10 µM	CCOC(=O)c1c(NC2CCCC2)sc(C(=O)c2cc(-c3ccccc3)no2)c1N [Compound 1-200, 4-Amino-2-cyclopentylamino-5-(3-phenyl-isoxazole-5-carbonyl)-thiophene-3-carboxylic acid ethyl ester]
< 10 µM	> 10 µM	< 10 µM	> 10 µM	CCNC(=O)c1cc(C(=O)c2sc(NC3CCCC3)c(C#N)c2N)on1 [Compound 1-198, 5-(3-Amino-4-cyano-5-cyclopentylamino-thiophene-2-carbonyl)-isoxazole-3-carboxylic acid ethylamide]
